# Assay results from patent US20050260290A1, “Botanical anti-inflammatory compositions and methods” (RUTGERS, THE STATE UNIVERSITY OF NEW JERSEY, priority 2004, published 2005).
# Tests used:
# COX-2 enzyme = molecular target: T1, COX-2 enzyme (Ovis aries, UniProt P79208); experiment: colorimetric COX (ovine) inhibitor screening assay, COX-2 inhibition; settings: peaks of subfractionated paradol fraction (Method C)
# T1 sequence (P79208 17-603): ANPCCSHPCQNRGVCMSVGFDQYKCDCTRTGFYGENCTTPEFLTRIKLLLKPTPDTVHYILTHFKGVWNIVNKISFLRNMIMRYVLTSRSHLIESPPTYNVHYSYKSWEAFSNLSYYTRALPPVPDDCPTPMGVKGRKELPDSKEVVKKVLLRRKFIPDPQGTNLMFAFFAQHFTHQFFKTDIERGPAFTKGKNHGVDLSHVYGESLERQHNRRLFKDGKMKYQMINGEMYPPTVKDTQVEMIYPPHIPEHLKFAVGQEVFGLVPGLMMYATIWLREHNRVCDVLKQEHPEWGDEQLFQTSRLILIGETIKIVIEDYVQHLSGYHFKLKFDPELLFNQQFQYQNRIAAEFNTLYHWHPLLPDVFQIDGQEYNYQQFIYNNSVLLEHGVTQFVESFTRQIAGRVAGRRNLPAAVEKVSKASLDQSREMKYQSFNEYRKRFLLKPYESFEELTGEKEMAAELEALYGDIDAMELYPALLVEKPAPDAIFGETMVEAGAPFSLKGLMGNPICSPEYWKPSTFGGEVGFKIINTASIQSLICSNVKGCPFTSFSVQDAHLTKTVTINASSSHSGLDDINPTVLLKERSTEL
# Procedure: The anti-inflammatory extract product of Example 1 was suspended in 95 vol. % ethanol at a concentration of 1 milligram (mg) extract product per milliliter (mL) ethanol to form an A. melegueta solution. The activity of the solution was tested with a colorimetric COX (ovine) inhibitor screening assay (catalogue no. 760111, Cayman Chemical, Ann Arbor, Mich.). The screening assay measures the peroxidase activity of cyclooxygenases by monitoring the appearance of oxidized N,N,N′N′-tetramethyl-p-phenylenediamine (TMPD) at 590 nm as previously described [Kulmacz, Prostaglandins, 25:531-540 (1983)]. A (relatively) higher TMPD concentration corresponds to a greater absorbance at 590 nm, a greater peroxidase activity, and a greater COX-2 activity (corresponding to the degree of inhibition of COX-2 activity).
# Three milliliters (mL) of assay buffer concentrate (as provided) was diluted with 27 mL HPLC-grade water to provide a final assay buffer (0.1M Tris-HCl, pH 8). This buffer assay solution was used to prepare heme and COX-2 enzyme assay solutions. […]
# 10 μl of 95 vol. % ethanol was then added to the background and negative control wells. […] The absorbance for each well was measured at 590 nm using a plate reader.
# The inhibitory activity was calculated from these absorbance readings. […]
# [1] = system: carrageenan hind paw edema; experiment: rat hind paw edema assay (Example 3); type: in vivo, Long-Evans-derived rats; settings: 150 mg/kg; 3 h after carrageenan
# Procedure: Hind paw edema models have been extensively described [see, for example, […] et al. (eds.), Inflammation Protocols, pp. 115-122 (2003)] and have been accepted as in vivo models of human inflammation. […] Aspirin was administered to another group of three Long-Evans rats at 150 mg/kg dose as a positive control reference compound. The severity of the hind paw edema (i.e., the hind paw volume) was recorded 3 hours after carrageenan administration using a plethysmometer (Ugo Basile, Italy). The hind paw volume measurements correspond to the amount of induced swelling, and therefore a reduction in the swelling corresponds to a reduction in inflammation. The anti-inflammatory activity of the Aframomum melegueta extract products can be expressed as a percentage of edema reduction (relative to the negative control (i.e., full edema)).
# [2] = system: acetic acid-induced writhing; experiment: acetic acid-induced writhing assay; type: in vivo, mice; settings: 100 mg/kg
# Procedure: This writhing assay has been previously described [Inoue et al., Arzneimittelforschung, 41(3):235-239 (1991).] […] An aqueous solution comprising 2 vol. % Tween 80 was administered as a negative control to another group of three mice. Aspirin was administered at 100 mg/kg as a positive control to a fourth group of three mice. The number of writhings per animal group was observed during the period beginning at about five minutes after acetic acid challenge and ending at about ten minutes after acetic acid challenge. The average number of writhings per animal group is an indication of pain, e.g., inflammation-induced pain, and therefore a reduction in the number of writhings per unit time per animal group corresponds to a reduction in inflammation. The reduction in number of writhings can be expressed relative to the negative control value as a percentage of inflammation inhibition.
# [3] = system: carrageenan hind paw edema; experiment: rat hind paw edema assay, two studies (Example 4); type: in vivo, Long-Evans-derived rats; settings: 1 h after carrageenan (positive control)
# Procedure: Two studies were conducted. […] The anti-inflammatory extract product was administered to the groups at different dose protocols. Comparisons can be made relative to the negative and positive control animal groups. Groups 2 and 4 of the first and second study, and Groups 2 and 5 of the second study, received a single dose of the extract product one hour after hind paw injection of carrageenan (0.1 ml of a suspension of 1 wt. % carrageenan in […], intraplantar). Group 3 of both studies received a first dose of the extract product one hour before, and a second dose of the extract product one hour after, hind paw injection of carrageenan. […] Group 4 of the second study received a dose of the extract product one hour before administration of carrageenan. Group 5 of the first study and Group 6 of the second study received indomethacin, a commercially available nonsteroidal anti-inflammatory drug, one hour after hind paw injection of carrageenan. Indomethacin was administered as a positive control reference compound, and Groups 5 and 6 (of the first and second studies, respectively) represent positive control groups. The severity of the hind paw edema (i.e., hind paw volume) was recorded at 3 hours after, 5 hours after, and 24 hours after carrageenan administration using a plethysmometer (Ugo Basile, Italy). The hind paw volume measurements after carrageenan administration correspond to the amount of induced swelling, and a reduction in the percentage of increase in hind paw volume relative to the percentage of increase observed in hind paw volume for the negative control group corresponds to a reduction in inflammation. For example, the hind paw volume of the negative control group of the first study (Group 1) increased by about 45% whereas the hind paw volume of Group 2 (which received an Aframomum melegueta extract product) increased by only 25%.
# [4] = first study Group 5: 15 mg/kg, 3 h
# [5] = first study Group 5: 15 mg/kg, 5 h
# [6] = first study Group 5: 15 mg/kg, 24 h
# [7] = second study Group 6: 15 mg/kg, 3 h
# [8] = second study Group 6: 15 mg/kg, 5 h
# [9] = second study Group 6: 15 mg/kg, 24 h
structure (smiles),measurement,setting,value
"CCCCCCCC(=O)CCc1ccc(O)c(OC)c1 (single isomer, unassigned) [second peak, [6]-paradol]",inhibition at 1000 µg/mL,"COX-2 enzyme; read-out: COX-2 inhibitory activity, 1 mg/mL",83%
"CCCCCCCC(=O)CCc1ccc(O)c(OC)c1 (single isomer, unassigned) [first peak, [6]-paradol]",COX-2 inhibitory activity,COX-2 enzyme; 1 mg/mL,74%
CC(=O)Oc1ccccc1C(=O)O [aspirin],reduction of hind paw edema,[1],about 43%
same,percentage of inflammation inhibition (writhing),[2],80%
same,average number of writhings per animal group,[2]; 5-10 min after challenge,3
"COc1ccc2c(c1)c(CC(=O)O)c(C)n2C(=O)c1ccc(Cl)cc1 [Indomethacin, indomethacin]",Increase in rat hind paw volume after carrageenan administration,[3]; [4],44%
same,rat hind paw volume after carrageenan administration,[3]; [4],1.51 ± 0.05 mL
same,Increase in rat hind paw volume after carrageenan administration,[3]; [5],29%
same,rat hind paw volume after carrageenan administration,[3]; [5],1.35 ± 0.08 mL
same,Increase in rat hind paw volume after carrageenan administration,[3]; [6],12%
same,rat hind paw volume after carrageenan administration,[3]; [6],1.18 ± 0.1 mL
same,Increase in rat hind paw volume after carrageenan administration,[3]; [7],44%
same,rat hind paw volume after carrageenan administration,[3]; [7],1.51 ± 0.05 mL
same,Increase in rat hind paw volume after carrageenan administration,[3]; [8],29%
same,rat hind paw volume after carrageenan administration,[3]; [8],1.35 ± 0.08 mL
same,Increase in rat hind paw volume after carrageenan administration,[3]; [9],12%
same,rat hind paw volume after carrageenan administration,[3]; [9],1.18 ± 0.1 mL
